From patent publication US20220324876A1, “4-SUBSTITUTED PYRANO[3,4,b]PYRAZINE KAPPA AGONISTS FOR TREATING DRUG DEPENDENCY” (The Rockefeller University, priority 2019, published 2022)

Columns and labels:
[1] = biological target: kappa opioid receptor (hOPRK1) β-arrestin (Homo sapiens, UniProt P41145); test: β-arrestin PathHunter assay (U2OS hOPRK1); details: for Arrestin efficacy, %: Table E
[2] = biological target: T1, human kappa opioid receptors (Homo sapiens, UniProt P41145); test: [35S]GTPγS binding, membranes from U2OS cells; format: biochemical; details: for Emax: read-out: GTPγS (% efficacy)
T1 construct: expressed in transfected cells; host or cells: U2OS
T1 sequence (P41145 whole entry): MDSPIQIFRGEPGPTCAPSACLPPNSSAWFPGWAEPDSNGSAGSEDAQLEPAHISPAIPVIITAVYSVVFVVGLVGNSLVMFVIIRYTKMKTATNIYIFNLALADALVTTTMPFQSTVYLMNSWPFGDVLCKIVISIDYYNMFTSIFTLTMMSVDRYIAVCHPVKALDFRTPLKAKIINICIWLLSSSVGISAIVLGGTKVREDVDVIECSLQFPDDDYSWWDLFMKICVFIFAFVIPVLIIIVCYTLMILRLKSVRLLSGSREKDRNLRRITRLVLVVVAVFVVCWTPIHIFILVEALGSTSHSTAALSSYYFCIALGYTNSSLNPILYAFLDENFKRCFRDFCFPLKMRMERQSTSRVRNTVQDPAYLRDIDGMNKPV

male mice [3] = test: Serum prolactin release in mice; format: in vivo; details: dose-response experiment
male mice [4] = test: Rotarod incoordination (sedation) in mice; format: in vivo
Text: In the case of rotarod incoordination, kappa agonist effects in this assay reflect kappa-opioid receptor arrestin mediated signaling. This assay is thought to be a sensitive measure of the sedative properties of kappa opioid receptor agonists. Generally, a compound which has reduced efficacy in the coupling of arrestin with the kappa opioid receptor is thought to have a lowered potential for the sedative side effects of kappa opioid receptor ligands Rotarod assays in vivo are employed to confirm this possibility.
Rotarod experiments are conducted with mice using a dedicated rodent rotarod apparatus, with up to five animals tested concurrently (IITC Life Science, Woodland Hills, Calif, USA). Rotarod rotation rate begins at 3 rotations per minute, and ramps to 30 rotations per minute over the course of 300 s, at which time the assay is terminated and animals removed to their home cage. Animals are acclimated to the rotarod on at least two occasions prior to the day of the test. On the day of the test, baseline times for each animal to fall off the rotarod are recorded. Mice are then injected intraperitoneally with vehicle or compound, and rotarod measurements conducted, beginning 0-2 minutes after injection, and then subsequently at select time points thereafter. Animals which fail to remain on the rotarod for at least 150 seconds during baseline testing are removed from the analysis.
(The closure of laboratories during the covid-19 pandemic delayed the carrying out of conditioned place aversion assays and modulation of cocaine self-administration, so that results were not available by the filing date of this application.)

Sequence of kappa opioid receptor (hOPRK1) β-arrestin (P41145 whole entry): as above

What does the source list for `CC(C)(O)CN1CCN(C(=O)Cc2ccc(Cl)c(Cl)c2)[C@H]2[C@H]1COC[C@@H]2N1CCCC1` (single isomer, unassigned) [Example 5A90A]?
EC50 [1]: 43200 nM; Arrestin efficacy, % [1]: 78.1%; EC50 ([2]; GTPγS EC50 (nM), Table D): 22 nM; EC50 ([2]; GTPγS potency (nM), Table E): 34.7 nM; GTPγS efficacy, % ([2]; Table E): 91.0%; Emax [2]: 101%

Which results are given for `CC(C)(O)CN1CCN(C(=O)Cc2ccc(Cl)c(Cl)c2)[C@H]2[C@H](N3CCCC3)COC[C@@H]21` (single isomer, unassigned) [Example 5A90B]?
stimulation of prolactin levels (male mice [3]; 30 mg/kg (p<0.05)): statistically significant stimulation; stimulation of prolactin levels (male mice [3]; 90 mg/kg (p<0.005)): statistically significant stimulation; EC50 [1]: 5250 nM; Arrestin efficacy, % [1]: 46.5%; sedative effect in rotarod (male mice [4]; 10 mg/kg intraperitoneally): not; sedative effect in rotarod (male mice [4]; 30 mg/kg intraperitoneally): not; sedative effect in rotarod (male mice [4]; 90 mg/kg intraperitoneally): substantial sedative effect; EC50 ([2]; GTPγS EC50 (nM), Table D): 5.4 nM; EC50 ([2]; GTPγS potency (nM), Table E): 8.9 nM; GTPγS efficacy, % ([2]; Table E): 69.3%; Emax [2]: 68%

What does the source list for `O=C(Cc1ccc(Cl)c(Cl)c1)N1CCN(C(=O)C2(O)CC2)[C@H]2COC[C@@H](N3CCCC3)[C@@H]21` (single isomer, unassigned) [Example 5A126B]?
EC50 ([2]; GTPγS EC50 (nM), Table D): 17 nM; Emax [2]: 107%

For `O=C(Cc1ccc(Cl)c(Cl)c1)N1CCN(Cc2ccc(F)cc2)[C@@H]2COC[C@H](N3CCCC3)[C@H]21` (single isomer, unassigned) [Example 5A136A], which EC50 ([2]; GTPγS EC50 (nM), Table D) is on record?
The EC50 was 7 nM.

And the Emax [2]?
The Emax was 105%.

What does the source list for `O=C(Cc1ccc(Cl)c(Cl)c1)N1CCN(Cc2ccc(F)cc2)[C@H]2COC[C@@H](N3CCCC3)[C@@H]21` (single isomer, unassigned) [Example 5A136B]?
EC50 ([2]; GTPγS EC50 (nM), Table D): 74 nM; Emax [2]: 129%

With `O=C(Cc1ccc(Cl)c(Cl)c1)N1CCN(CC2CCCO2)[C@H]2COC[C@@H](N3CCCC3)[C@@H]21` (single isomer, unassigned) [Example 5A138D] as the molecule, how does the EC50 ([2]; GTPγS EC50 (nM), Table D) read?
The EC50 was 100 nM.

And the Emax [2]?
The Emax was 102%.

Which EC50 ([2]; GTPγS EC50 (nM), Table D) does the source give for `O=C(Cc1ccc(Cl)c(Cl)c1)N1CCN(S(=O)(=O)CCO)[C@@H]2COC[C@H](N3CCCC3)[C@H]21` (single isomer, unassigned) [Example 5A140A] here?
The EC50 was 20 nM.

And the Emax [2]?
The Emax was 112%.

Which results are given for `O=C(Cc1ccc(Cl)c(Cl)c1)N1CCN(S(=O)(=O)CCO)[C@H]2COC[C@@H](N3CCCC3)[C@@H]21` (single isomer, unassigned) [Example 5A140B]?
EC50 ([2]; GTPγS EC50 (nM), Table D): 22 nM; Emax [2]: 107%

Which EC50 ([2]; GTPγS EC50 (nM), Table D) does the source give for `COCCN1CCN(C(=O)Cc2ccc(Cl)c(Cl)c2)[C@H]2[C@H]1COC[C@@H]2N1CCCC1` (single isomer, unassigned) [Example 5A141A] here?
The EC50 was 37 nM.

And the Emax [2]?
Its Emax is 96%.

Which EC50 ([2]; GTPγS EC50 (nM), Table D) does the source give for `COCCN1CCN(C(=O)Cc2ccc(Cl)c(Cl)c2)[C@H]2[C@H](N3CCCC3)COC[C@@H]21` (single isomer, unassigned) [Example 5A141B] here?
Its EC50 is 26 nM.

And the Emax [2]?
The Emax was 103%.

With `O=C(Cc1ccc(Cl)c(Cl)c1)N1CCN(CCC2COC2)[C@@H]2COC[C@H](N3CCCC3)[C@H]21` (single isomer, unassigned) [Example 5A142A] as the molecule, how does the EC50 ([2]; GTPγS EC50 (nM), Table D) read?
The EC50 was 70 nM.

And the Emax [2]?
Its Emax is 77%.

For `O=C(Cc1ccc(Cl)c(Cl)c1)N1CCN(Cc2cccc(F)c2)[C@@H]2COC[C@H](N3CCCC3)[C@H]21` (single isomer, unassigned) [Example 5A145A], which EC50 ([2]; GTPγS EC50 (nM), Table D) is on record?
The EC50 was 5 nM.

What about the Emax [2] of the same molecule?
The Emax was 95%.

`O=C(Cc1ccc(Cl)c(Cl)c1)N1CCN(Cc2cccc(F)c2)[C@H]2COC[C@@H](N3CCCC3)[C@@H]21` (single isomer, unassigned) [Example 5A145B] was tested. Which EC50 ([2]; GTPγS EC50 (nM), Table D) did it give?
The EC50 was 9.7 nM.

What about the Emax [2] of the same molecule?
The Emax was 91%.

`COCCS(=O)(=O)N1CCN(C(=O)Cc2ccc(Cl)c(Cl)c2)[C@H]2[C@H]1COC[C@@H]2N1CCCC1` (single isomer, unassigned) [Example 5A146A] was tested. Which EC50 ([2]; GTPγS EC50 (nM), Table D) did it give?
The EC50 was 9.2 nM.

And the Emax [2]?
Its Emax is 91%.

How did the EC50 ([2]; GTPγS EC50 (nM), Table D) turn out when `COCCS(=O)(=O)N1CCN(C(=O)Cc2ccc(Cl)c(Cl)c2)[C@H]2[C@H](N3CCCC3)COC[C@@H]21` (single isomer, unassigned) [Example 5A146B] was run?
The EC50 was 115 nM.

What about the Emax [2] of the same molecule?
The Emax was 127%.

Which EC50 ([2]; GTPγS EC50 (nM), Table D) does the source give for `O=C(Cc1ccc(Cl)c(Cl)c1)N1CCN(Cc2ccon2)[C@@H]2COC[C@H](N3CCCC3)[C@H]21` [Example 5A86A] here?
Its EC50 is 1 nM.

And the Emax [2]?
The Emax was 99%.

Which EC50 ([2]; GTPγS EC50 (nM), Table D) does the source give for `O=C(Cc1ccc(Cl)c(Cl)c1)N1CCN(Cc2ccon2)[C@H]2COC[C@@H](N3CCCC3)[C@@H]21` [Example 5A86B] here?
The EC50 was 23 nM.

What about the Emax [2] of the same molecule?
The Emax was 79%.

With `CC(O)CN1CCN(C(=O)Cc2ccc(Cl)c(Cl)c2)[C@H]2[C@H]1COC[C@@H]2N1CCCC1` (some centres unmarked) [Example 5A89] as the molecule, how does the EC50 ([2]; GTPγS EC50 (nM), Table D) read?
Its EC50 is 34 nM.

What about the Emax [2] of the same molecule?
Its Emax is 93%.

What does the source list for `O=C(Cc1ccc(Cl)c(Cl)c1)N1CCN(CC2CCOC2)[C@@H]2COC[C@H](N3CCCC3)[C@H]21` (some centres unmarked) [Example 5A93]?
EC50 ([2]; GTPγS EC50 (nM), Table D): 46 nM; Emax [2]: 80%

For `CC(C)(O)C(=O)N1CCN(C(=O)Cc2ccc(Cl)c(Cl)c2)[C@H]2[C@H]1COC[C@@H]2N1CCCC1` [Example 5A96A], which EC50 [1] is on record?
Its EC50 is 3760 nM.

And the “Arrestin efficacy, %” value [1]?
The value was 53.0%.

And the “sedative effect in rotarod” value (male mice [4]; up to 90 mg/kg intraperitoneally)?
The value was “no statistically significant sedative effect”.

And the EC50 ([2]; GTPγS EC50 (nM), Table D)?
The EC50 was 17 nM.

And the EC50 ([2]; GTPγS potency (nM), Table E)?
Its EC50 is 32.8 nM.

And the “GTPγS efficacy, %” value ([2]; Table E)?
The value was 77.0%.

And the Emax [2]?
The Emax was 64%.

How did the EC50 [1] turn out when `CC(C)(O)C(=O)N1CCN(C(=O)Cc2ccc(Cl)c(Cl)c2)[C@H]2[C@H](N3CCCC3)COC[C@@H]21` [Example 5A96B] was run?
The EC50 was 24800 nM.

And the “Arrestin efficacy, %” value [1]?
The value was 60.7%.

And the EC50 ([2]; GTPγS EC50 (nM), Table D)?
Its EC50 is 64 nM.

And the EC50 ([2]; GTPγS potency (nM), Table E)?
Its EC50 is 71.4 nM.

And the “GTPγS efficacy, %” value ([2]; Table E)?
The value was 123.5%.

What about the Emax [2] of the same molecule?
Its Emax is 113%.

Which EC50 ([2]; GTPγS EC50 (nM), Table D) does the source give for `CC(F)(F)CN1CCN(C(=O)Cc2ccc(Cl)c(Cl)c2)[C@H]2[C@H]1COC[C@@H]2N1CCCC1` [Example 5A127A] here?
Its EC50 is 5.3 nM.

And the Emax [2]?
The Emax was 110%.

`CC(F)(F)CN1CCN(C(=O)Cc2ccc(Cl)c(Cl)c2)[C@H]2[C@H](N3CCCC3)COC[C@@H]21` [Example 5A127B] was tested. Which EC50 ([2]; GTPγS EC50 (nM), Table D) did it give?
Its EC50 is 24 nM.

And the Emax [2]?
Its Emax is 88%.
